Like-named read-outs stand apart in the source and are kept apart here.
Columns and labels:
[1] = system: subcutaneous xenograft tumor model of human B lymphocyte Pfeiffer; assay: In vivo efficacy in subcutaneous xenograft tumor model of human B lymphocyte Pfeiffer; set-up: species or system mouse; details: SCID Beige mice, tumor volume 21 days after administration
Protocol: Human B lymphocyte strain Pfeiffer was cultured in vitro, in a monolayer way, in a RPMI-1640 medium containing 10% fetal bovine serum, 100 U/mL penicillin and 100 μg/mL streptomycin in an incubator at 37° C./5% CO2. Conventional medium refreshment and subculturing were carried out twice a week, and cells in logarithmic growth phase were collected and used for tumor inoculation after being counted.
Female SCID Beige mice, aged 6-8 weeks and weighed 18-22 g were used in the experiment. The experiment started after 7-day adaptive feed.
Each mouse was inoculated subcutaneously with 10×10^6 Pfeiffer cells in a volume of 0.2 mL in the right side of the neck. The cells were suspended with PBS and matrigel (volume ratio 1:1). After the average tumor volume reached 130 mm^3, the mice were divided into groups with 8 mice per group for administration. The administration volume was 10 uL/g and the dose was 100 mg/kg if there's no special labeling ((p.o. administration, QD, continuous administration for 21 days).
Animal body weights were measured twice weekly and animal mortality and side effects within each group were recorded based on the number of animals in the group.
The experimental indices were to investigate whether tumor growth was inhibited or delayed or the tumor was cured. Tumor diameters were measured twice weekly using a vernier caliper. The tumor volume was calculated according to the following formula: V=0.5 a×b^2, where a and b represent the long diameter and short diameter of the tumor, respectively. The tumor growth inhibitions (TGIs) of the compounds were evaluated by T/C (%). The percentage value of T/C (%) is an index for reflecting the tumor growth inhibition, where T and C represent the average tumor volume of the administration group and the control group, respectively, at a certain day.
The tumor growth inhibition rate was calculated according to the following formula: TGI (%)=(1−(Ti−T0)/(Vi−V0))×100, where Ti is the average tumor volume of a certain administration group on a certain day, T0 is the average tumor volume of the administration group at the start of administration, Vi is the average tumor volume of the vehicle control group on a certain day (same day as Ti) and V0 is the average tumor volume of the vehicle control group at the start of administration.
Relative tumor volumes at each time point for each group were statistically analyzed and differences among groups were assessed based on the data. The statistical method used for testing was one-way ANOVA.

[2] = In vivo pharmacokinetic properties in mice; set-up: species or system mouse; Cmax: unit: ng/mL; details: male ICR mice; for F: intragastric 250 mg/kg vs intravenous 5 mg/kg; for CL / AUC(0-inf) / Cmax / Tmax / half-life / AUC0-∞ / T1/2: single intravenous 5 mg/kg and intragastric 250 mg/kg study
Protocol: Male ICR mice were divided into different groups with 3 mice in each group, and single intravenous injection and single intragastric administration were conducted respectively. The compounds were formulated with 10% DMSO/90% (20% Captisol) to reach an appropriate concentration and then administered intravenously at 5 mg/kg. The compounds were formulated with 0.5% CMC-Na/0.1% Tween 80 (pH=3-4) to reach an appropriate concentration and then administered intragastrically at 250 mg/kg. Blood was taken at 5 min, 15 min, 30 min, 1 h, 2 h, 4 h, 6 h, 8 h and 24 h after administration, and then subjected to EDTA-K2 anticoagulation. The concentration of the compound in the plasma was quantitatively detected by an LC-MS/MS method.

WSU-DLCL2 cells = assay: Experiment on WSU-DLCL2 cell proliferation (Calcein-AM); format: cell-based
Protocol: WSU-DLCL2 cells were plated in a 96-well plate and 100 uL of cells (a density of 1×10^5 cells/mL) and 50 uL of compound stock at 3-fold concentration was added to each well, and the final volume was 150 uL/well. After 6 days of culturing, on day 7, the cells in the well plate were mixed well by pipetting, and 50 uL of the cell suspension was pipetted to be tested for cell viability using Calcein-AM. 50 uL of the cell suspension was added to a 96-well plate coated by poly-D-Lysine, and then 50 uL of HBSS containing 2 uM Calcein-AM was added to make the final concentration of Calcein-AM 1 uM. After incubation for 10 min at room temperature, the cells were rapidly centrifuged to be deposited on the bottom of the plate. The cells were cultured in the incubator for another 40 min and then the plate was read on Acumen.
The remaining cells were diluted and then plated in a 96-well plate, and 100 uL of cells and 50 uL of a compound at 3-fold concentration were added to each well for further culturing until day 14, and the cell viability was detected as described above. The IC50 was calculated.

Pfeiffer cells = assay: Experiment on Pfeiffer cell proliferation (CellTiter-Glo); format: cell-based, human
Protocol: 90 uL of cells were added to each well of a 96-well plate at 12000 cells/well, and cell-free culture medium was added to blank control wells. The plate was incubated overnight in an incubator at 37° C., 5% CO2 and 100% relative humidity. The compounds were diluted from highest to lowest concentration gradient with DMSO to make stock solutions at 400-fold and 10-fold concentration. 10 μL of 10× compound working solution was added to the cell culture plate, and the total concentration of the compound was detected from 10 μM, 9 concentration points in total, and 3-fold serial dilution was performed. 10 μL of DMSO-cell culture medium mixture solution was added to the vehicle control wells and blank control wells. The final concentration of DMSO was 0.25%. The plate was put back in the incubator for another 7 days of culturing.
The cell culture plate cultured for 7 days was taken out of the incubator, and the suspended cells in the 96-well plate were mixed well by pipetting multiple times. 74 uL of fresh cell culture medium was added to a new 96-well plate, and 16 uL of cell suspension was pipetted from the 96-well plate with cells mixed well by pipetting into the new 96-well plate to bring the total volume to 90 uL. Cells in the new 96-well plate were treated with the compound. The new 96-well plate was put back in the incubator for another 7 days of culturing, and then cell viability was detected directly.
84 μL of cell suspension was taken from the cell culture plate for cell viability detection.
CellTiter-Glo buffer and substrate were thawed and balanced to room temperature. The CellTiter-Glo buffer was added to a bottle of CellTiter-Glo substrate to dissolve the substrate, thereby preparing CellTiter-Glo working solution. The bottle was subjected to slow vortex shaking to completely dissolve the substrate. The cell culture plate was taken out and balanced to room temperature for 30 min. 50 μL of CellTiter-Glo working solution was added to each well. The cell plate was wrapped with aluminum foil to keep out of light. The plate was shaken on an orbital shaker for 2 min to induce cell lysis. The plate was placed at room temperature for 10 min to stabilize the luminescence signals. The luminescence signals were detected on 2104 En Vision plate reader.
Inhibition rates of compounds at different concentrations were calculated in Excel, followed by plotting the inhibition curves and calculating relevant parameters including minimum (%), maximum (%), and absolute IC50 using GraphPad Prism software.

EZH2 enzyme complex = EZH2 enzyme complex (Homo sapiens (Human), UniProt Q15910); assay: Test on EZH2 inhibitory activity (TR-FRET); format: biochemical; details: EZH2 enzyme complex 25 ng/uL, histone H3 peptide 4 uM, SAM 2 uM, 300 min; read-out: IC50 of EZH2 inhibition
WSU-DLCL2 = assay: Methylated lysine of histone-H3 (H3K27Me3) detection by ELISA, WSU-DLCL2 cells; format: cell-based; details: Homo sapiens, WSUDLCL2, 168 h; WSU-DLCL2, 7 days treatment, H3K27Me3 normalized to total histone-3; read-out: IC50 of cell methylation, WSU-DLCL2
Procedure, shortened: (§1)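 Cells were treated 7 days with compound (4-fold dilutions, 20 uM-0.009 nM), then lysed hypotonically with NaCl adjusted to ~100 mM. Lysate-coated plates were probed by ELISA for H3K27Me3 and total H3 (TMB, A450). Methylation signal was normalised to total H3 before curve fitting.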

Pfeiffer = assay: Methylated lysine of histone-H3 (H3K27Me3) detection by ELISA, Pfeiffer cells; format: cell-based, human; details: Homo sapiens, 168 h, 7 days treatment, H3K27Me3 normalized to total histone-3, read-out: IC50 of cell methylation, Pfeiffer
Procedure, shortened: as §1

[3] = mouse, plasma, oral, read-out: Cmax
[4] = mouse, plasma, oral, read-out: Tmax
[5] = WSU-DLCL2, Day 7, read-out: IC50 WSU-DLCL2 proliferation Day 7
[6] = WSU-DLCL2, Day 14, read-out: IC50 WSU-DLCL2 proliferation Day 14
[7] = Day 7, read-out: IC50 Pfeiffer proliferation Day 7
[8] = Day 14, read-out: IC50 Pfeiffer proliferation Day 14

EZH2 enzyme complex, sequence (Q15910 whole entry): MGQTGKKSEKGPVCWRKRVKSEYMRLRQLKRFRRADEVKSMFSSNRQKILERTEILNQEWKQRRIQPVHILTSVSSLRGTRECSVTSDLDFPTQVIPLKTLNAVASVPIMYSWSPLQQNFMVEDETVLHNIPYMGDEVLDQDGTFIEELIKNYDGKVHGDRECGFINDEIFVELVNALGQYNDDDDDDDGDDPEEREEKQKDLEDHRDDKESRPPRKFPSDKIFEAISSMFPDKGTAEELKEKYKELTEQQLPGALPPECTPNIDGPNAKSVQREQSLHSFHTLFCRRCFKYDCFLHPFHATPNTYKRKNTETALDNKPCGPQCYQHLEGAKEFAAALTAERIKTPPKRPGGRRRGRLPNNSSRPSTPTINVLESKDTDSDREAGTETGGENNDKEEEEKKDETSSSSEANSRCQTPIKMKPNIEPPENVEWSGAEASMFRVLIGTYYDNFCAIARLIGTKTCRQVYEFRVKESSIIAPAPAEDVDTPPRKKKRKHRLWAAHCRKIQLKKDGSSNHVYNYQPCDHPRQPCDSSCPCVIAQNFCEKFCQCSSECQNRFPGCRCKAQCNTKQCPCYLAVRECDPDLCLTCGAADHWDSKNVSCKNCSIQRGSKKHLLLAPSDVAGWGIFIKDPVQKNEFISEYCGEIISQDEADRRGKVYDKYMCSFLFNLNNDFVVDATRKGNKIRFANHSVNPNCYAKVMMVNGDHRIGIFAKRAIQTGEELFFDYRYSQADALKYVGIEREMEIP
EZH2 enzyme complex, sequence (O75530 whole entry partner): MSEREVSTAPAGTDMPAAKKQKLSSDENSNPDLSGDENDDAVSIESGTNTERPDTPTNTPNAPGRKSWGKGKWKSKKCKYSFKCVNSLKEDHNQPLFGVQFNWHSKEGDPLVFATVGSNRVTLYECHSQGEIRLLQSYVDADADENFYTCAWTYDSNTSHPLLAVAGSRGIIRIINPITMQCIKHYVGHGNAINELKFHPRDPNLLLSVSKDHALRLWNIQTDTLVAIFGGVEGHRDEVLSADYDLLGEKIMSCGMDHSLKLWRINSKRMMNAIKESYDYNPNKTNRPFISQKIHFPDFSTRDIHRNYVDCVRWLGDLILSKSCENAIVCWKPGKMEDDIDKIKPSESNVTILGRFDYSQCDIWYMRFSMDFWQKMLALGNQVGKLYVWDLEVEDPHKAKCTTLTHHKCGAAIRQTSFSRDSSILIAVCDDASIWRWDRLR
EZH2 enzyme complex, sequence (Q15022 whole entry partner): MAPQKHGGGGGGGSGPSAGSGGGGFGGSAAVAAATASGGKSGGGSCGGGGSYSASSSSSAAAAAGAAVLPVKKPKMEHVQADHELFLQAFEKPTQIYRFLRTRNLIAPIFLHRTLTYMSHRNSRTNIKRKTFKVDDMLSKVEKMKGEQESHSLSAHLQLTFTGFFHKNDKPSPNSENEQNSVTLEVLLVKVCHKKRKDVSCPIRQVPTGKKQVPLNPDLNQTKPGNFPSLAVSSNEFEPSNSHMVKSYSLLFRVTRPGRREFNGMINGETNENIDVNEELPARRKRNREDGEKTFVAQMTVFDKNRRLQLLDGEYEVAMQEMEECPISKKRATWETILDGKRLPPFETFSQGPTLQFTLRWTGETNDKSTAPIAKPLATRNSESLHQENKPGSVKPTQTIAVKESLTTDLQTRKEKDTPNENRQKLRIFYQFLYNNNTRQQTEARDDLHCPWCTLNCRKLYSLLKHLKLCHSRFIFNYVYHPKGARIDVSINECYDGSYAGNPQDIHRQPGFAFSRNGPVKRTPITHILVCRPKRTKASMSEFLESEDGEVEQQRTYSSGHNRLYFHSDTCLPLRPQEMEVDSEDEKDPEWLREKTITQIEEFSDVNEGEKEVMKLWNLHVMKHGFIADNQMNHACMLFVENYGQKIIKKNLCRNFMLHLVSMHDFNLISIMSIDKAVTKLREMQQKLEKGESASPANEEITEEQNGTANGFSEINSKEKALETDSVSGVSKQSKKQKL

Row | SMILES | F [2] [%] | CL [2] [mL/min/lg] | AUC(0-inf) ([2]; mouse, plasma, oral) [ng·h/mL] | Cmax [2, 3] [ng/mL] | Tmax [2, 4] [h] | half-life ([2]; mouse, plasma) [h] | AUC0-∞ [2] [ng·h/mL] | Cmax [2] [ng/mL] | T1/2 [2] [h] | Tmax [2] [h] | IC50 (WSU-DLCL2 cells; [5]) [nM] | IC50 (WSU-DLCL2 cells; [6]) [nM] | IC50 (Pfeiffer cells; [7]) [nM] | IC50 (Pfeiffer cells; [8]) [nM] | TGI ([1]; 100 mg/kg p.o. QD 21 days) [%] | IC50 (EZH2 enzyme complex) [nM] | other results
1 | CCN(c1cc(O[C@H]2C[C@H](N3CCCCC3)C2)cc(C(=O)NCc2c(C)cc(C)[nH]c2=O)c1C)C1CCC(F)(F)CC1 [Example 68, 3-((4,4-difluorocyclohexyl)(ethyl)amino)-N-((4,6-dimethyl-2-oxo-1,2-dihydropyridin-3-yl)methyl)-2-methyl-5-(trans-3-(piperidin-1-yl)cyclobutoxy)benzamide] | 56.5 | 27.1 ± 5.94 | 89500 | 9250 ± 181 | 1.33 ± 0.58 | 10.4 ± 8.53 | – | – | – | – | – | – | – | – | – | – | TGI ([1]; 50 mg/kg p.o. QD 21 days): 94.28%; IC50 (WSU-DLCL2 cells; Homo sapiens, WSUDLCL2, 168 h, WSU-DLCL2, Day 7, read-out: IC50 WSU-DLCL2 proliferation Day 7): 49 nM; IC50 (WSU-DLCL2 cells; Homo sapiens, WSUDLCL2, 336 h, WSU-DLCL2, Day 14, read-out: IC50 WSU-DLCL2 proliferation Day 14): 12 nM; IC50 (Pfeiffer cells; Homo sapiens, 168 h, Day 7, read-out: IC50 Pfeiffer proliferation Day 7): 13 nM; IC50 (Pfeiffer cells; Homo sapiens, 336 h, Day 14, read-out: IC50 Pfeiffer proliferation Day 14): 4.6 nM
2 | CCN(c1cc(OC2CN(C(=O)OC(C)(C)C)C2)cc(C(=O)NCc2c(C)cc(C)[nH]c2=O)c1C)C1CCOCC1 [EPZ194, reference compound] | 9.91 | 59.5 ± 19.1 | – | – | – | – | 7476 ± 1311 | 4059 ± 1830 | 2.13 ± 1.02 | 0.83 ± 0.29 | 106 | 23 | 62 | 11 | – | – | –
3 | CCN(c1cc(OC2CN(C)C2)cc(C(=O)NCc2c(C)cc(C)[nH]c2=O)c1C)C1CCC(N(C)C)CC1 (centres unmarked) [EPZ349, reference compound] | 12.8 | 149 ± 57.0 | – | – | – | – | 3918 ± 1710 | 1485 ± 860 | 2.19 ± 1.32 | 0.83 ± 0.29 | 563 | 110 | 104 | 33 | 22.39 | – | –
4 | CCN(c1cc(O[C@H]2C[C@H](N3CCOCC3)C2)cc(C(=O)NCc2c(C)cc(C)[nH]c2=O)c1C)C1CCC(F)(F)CC1 [Example 63, 3-((4,4-difluorocyclohexyl)(ethyl)amino)-N-((4,6-dimethyl-2-oxo-1,2-dihydropyridin-3-yl)methyl)-2-methyl-5-(trans-3-morpholinocyclobutoxy)benzamide] | – | – | – | – | – | – | – | – | – | – | – | – | – | – | 53.67 | 10 to 100 | –
5 | CCN(c1cc(OC2CNC2)cc(C(=O)NCc2c(C)cc(C)[nH]c2=O)c1C)C1CCOCC1 [EPZ195, reference compound] | 2.64 | 36.5 ± 6.21 | – | – | – | – | 3071 ± 486 | 945 ± 283 | 5.12 ± 0.89 | 1.42 ± 1.01 | 1430 | 281 | 385 | 127 | – | – | –
6 | CCN(c1cc(O[C@H]2C[C@H](N3CCOCC3)C2)cc(C(=O)NCc2c(C)cc(C)[nH]c2=O)c1C)C1CCOCC1 [Example 4, N-((4,6-dimethyl-2-oxo-1,2-dihydropyridin-3-yl)methyl)-3-(ethyl(tetrahydro-2H-pyran-4-yl)amino)-2-methyl-5-(trans-3-morpholinylcyclobutoxy)benzamide] | 25.1 | 60.6 ± 19.36 | 18800 ± 487 | 16500 ± 4630 | 0.33 ± 0.14 | 3.13 ± 3.1 | – | – | – | – | – | – | – | – | – | 10 to 100 | IC50 (WSU-DLCL2): 50 to 500 nM; IC50 (Pfeiffer): < 50 nM

Source: US12390472B2 (SUZHOU SINOVENT PHARMACEUTICALS CO., LTD., priority 2018, dated 2025)
